Laboratory results from US20190284162A1, “USE OF A DIFLUORO-(2-HYDROXYPROPYL)PYRIDINE COMPOUND AS A FUNGICIDE FOR CONTROL OF PHYTOPATHOGENIC FUNGI OF CORN” (Dow AgroSciences LLC, priority 2016, published 2019).

How the values were obtained:
Assay type in all cases: in vivo
Cercospora zeae-maydis = assay: Field assessment of Cercospora zeae-maydis (CERCZM), grey leaf spot, in corn
From the text: Field Assessment of Cercospora zeae-Maydis (CERCZM) in Corn:
(§1) A fungicidal treatment containing Compound I, applied alone in an EC formulation at 100 grams of active ingredient per hectare (g ai/ha) and tank mixed with an adjuvant (Agnique BP-420, 50% w/w at 0.3% v/v), was sprayed on corn plants (ZEAMX, Formula variety) twice at the growth stages 18 (8 leaves unfolded, application A) and 39 (stem elongation; prior to tassle emergence, application B) at rates of 25, 50, 100, 125 and 150 g ai/ha. The experimental plots were inoculated with grey leaf spot 24 hr after each application. The treatment was part of an experimental trial designed as a randomized complete block with four replications and a plot of approximately 1×3 m. Compound I was applied at water volume of 200 L/ha, using a backpack precision plot sprayer (BKPCKAIR, 2 and 3 m band width, Flat Fan XR110.015 Nozzle) and pressurized at 45 psi.
(§2) Disease severity (percentage of visual diseased foliage on whole plot) was assessed six times (15-49 days after application B, DAAB). The disease infection was recorded following EPPO PP1/26 guideline prescriptions. Area under the disease progress curve (AUDPC) was calculated for each plot using the sets of recorded severity data. Relative AUDPC (% control based on AUDPC) was calculated as percent of the nontreated control.

Exserohilum turcicum = assay: Field assessment of Exserohilum turcicum (SETOTU) in corn
From the text: Field Assessment of Exserohilum turcicum (SETOTU) in Corn: A fungicidal treatment containing Compound I, tank mixed with an adjuvant (Agnique BP-420, 50% w/w at 0.3% v/v), was sprayed on corn plants once at the growth stage 51 (beginning tassel emergence) at rates of 50, 75, 100, and 150 g ai/ha. The treatment was part of an experimental trial designed as a randomized complete block with four replications. Compound I was applied at water volume of 140 L/ha, using a backpack precision plot sprayer. Disease severity was assessed as combined percent visual necrosis on leaves ear-1, ear and ear+1. Severity was assessed twice at 24 DAA1 (days after application 1) and 32 DAA1.

Phaeosphaeria maydis = assay: Field assessment of Phaeosphaeria maydis (PHSPMA), phaeosphaeria leaf spot, in corn
From the text: Field Assessment of Phaeosphaeria maydis (PHSPMA) in Corn:
as §1, with “P30R50” for “Formula”, “phaeosphaeria” for “grey”
as §2

Puccinia polysora = assay: Field assessment of Puccinia polysora (PUCCPY), brown rust, in corn
From the text: Field Assessment of Puccinia polysora (PUCCPY) in Corn:
as §1, with “P30R50” for “Formula”, “brown rust” for “grey leaf spot”
as §2

[1] = 25 g ai/ha, with adjuvant Agnique BP-420, two applications
[2] = 50 g ai/ha, with adjuvant Agnique BP-420, two applications
[3] = 100 g ai/ha, with adjuvant Agnique BP-420, two applications
[4] = 100 g ai/ha, without adjuvant, two applications
[5] = 125 g ai/ha, with adjuvant Agnique BP-420, two applications
[6] = 150 g ai/ha, with adjuvant Agnique BP-420, two applications

## N#Cc1ccc(Oc2ccc(C(F)(F)C(O)(Cn3ncnc3S)c3ccc(F)cc3F)nc2)cc1 (centres unmarked) [Compound I, 4-((6-(2-(2,4-difluorophenyl)-1,1-difluoro-2-hydroxy-3-(5-mercapto-1H-1,2,4-triazol-1-yl)propyl)pyridin-3-yl)oxy)benzonitrile]
Cercospora zeae-maydis; [1]
  Disease (% Control) CERCZM, based on AUDPC: B (51-75)
Cercospora zeae-maydis; [2]
  Disease (% Control) CERCZM, based on AUDPC: B (51-75)
Cercospora zeae-maydis; [3]
  Disease (% Control) CERCZM, based on AUDPC: B (51-75)
Cercospora zeae-maydis; [4]
  Disease (% Control) CERCZM, based on AUDPC: C (26-50)
Cercospora zeae-maydis; [5]
  Disease (% Control) CERCZM, based on AUDPC: A (76-100)
Cercospora zeae-maydis; [6]
  Disease (% Control) CERCZM, based on AUDPC: A (76-100)
Exserohilum turcicum; 50 g ai/ha, 24 DAA1, tank mixed with Agnique BP-420, untreated control 36.1
  Disease severity: combined visual necrosis on leaves ear-1, ear and ear+1: 46.5%
Exserohilum turcicum; 50 g ai/ha, 32 DAA1, tank mixed with Agnique BP-420, untreated control 50.4
  Disease severity: combined visual necrosis on leaves ear-1, ear and ear+1: 45.5%
Exserohilum turcicum; 75 g ai/ha, 24 DAA1, tank mixed with Agnique BP-420, untreated control 36.1
  Disease severity: combined visual necrosis on leaves ear-1, ear and ear+1: 45.0%
Exserohilum turcicum; 75 g ai/ha, 32 DAA1, tank mixed with Agnique BP-420, untreated control 50.4
  Disease severity: combined visual necrosis on leaves ear-1, ear and ear+1: 44.2%
Exserohilum turcicum; 100 g ai/ha, 24 DAA1, tank mixed with Agnique BP-420, untreated control 36.1
  Disease severity: combined visual necrosis on leaves ear-1, ear and ear+1: 37.2%
Exserohilum turcicum; 100 g ai/ha, 32 DAA1, tank mixed with Agnique BP-420, untreated control 50.4
  Disease severity: combined visual necrosis on leaves ear-1, ear and ear+1: 31.6%
Exserohilum turcicum; 150 g ai/ha, 24 DAA1, tank mixed with Agnique BP-420, untreated control 36.1
  Disease severity: combined visual necrosis on leaves ear-1, ear and ear+1: 37.9%
Exserohilum turcicum; 150 g ai/ha, 32 DAA1, tank mixed with Agnique BP-420, untreated control 50.4
  Disease severity: combined visual necrosis on leaves ear-1, ear and ear+1: 33.3%
Phaeosphaeria maydis; [1]
  Disease (% Control) PHSPMA, based on AUDPC: B (51-75)
Phaeosphaeria maydis; [2]
  Disease (% Control) PHSPMA, based on AUDPC: B (51-75)
Phaeosphaeria maydis; [3]
  Disease (% Control) PHSPMA, based on AUDPC: A (76-100)
Phaeosphaeria maydis; [4]
  Disease (% Control) PHSPMA, based on AUDPC: B (51-75)
Phaeosphaeria maydis; [5]
  Disease (% Control) PHSPMA, based on AUDPC: A (76-100)
Phaeosphaeria maydis; [6]
  Disease (% Control) PHSPMA, based on AUDPC: A (76-100)
Puccinia polysora; [1]
  Disease (% Control) PUCCPY, based on AUDPC: A (76-100)
Puccinia polysora; [2]
  Disease (% Control) PUCCPY, based on AUDPC: A (76-100)
Puccinia polysora; [3]
  Disease (% Control) PUCCPY, based on AUDPC: A (76-100)
Puccinia polysora; [4]
  Disease (% Control) PUCCPY, based on AUDPC: A (76-100)
Puccinia polysora; [5]
  Disease (% Control) PUCCPY, based on AUDPC: A (76-100)
Puccinia polysora; [6]
  Disease (% Control) PUCCPY, based on AUDPC: A (76-100)
